One experiment has as its target T1, human CRF2a receptor (Homo sapiens, UniProt Q13324).
T1 construct: expressed in transfected cells; host or cells: TeloHEAC cells
T1 sequence (Q13324 1-411): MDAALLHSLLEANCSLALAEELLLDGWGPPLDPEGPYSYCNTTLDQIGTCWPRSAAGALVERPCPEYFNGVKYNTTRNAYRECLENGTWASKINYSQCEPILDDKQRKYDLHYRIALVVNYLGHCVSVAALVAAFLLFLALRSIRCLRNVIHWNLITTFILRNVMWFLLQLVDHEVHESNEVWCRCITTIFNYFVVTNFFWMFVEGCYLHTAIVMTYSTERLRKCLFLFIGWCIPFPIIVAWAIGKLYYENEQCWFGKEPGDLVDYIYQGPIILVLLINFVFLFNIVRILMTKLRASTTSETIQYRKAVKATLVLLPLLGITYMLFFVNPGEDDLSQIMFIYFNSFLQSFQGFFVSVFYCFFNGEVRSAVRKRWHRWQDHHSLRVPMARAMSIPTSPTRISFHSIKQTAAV
Nature of the experiment: Activity at human CRF2a receptor, cAMP functional assay in TeloHEAC cells. It counts as cell-based. The note with it: TeloHEAC cells stably expressing human CRF2a receptor, relative to urocortin 2 (100 nM = 100%). The method, boiled down:
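TeloHEAC cells stably expressing human CRF2a (10000 cells/well) were treated with 16-point 1:2 compound dilutions in HBSS/20 mM HEPES with IBMX for 30 min at 37° C. cAMP was read by HTRF (665/620 nm ratio). EC50 was the concentration giving 50% activation, with 100 nM urocortin 2 set as 100%.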

For a further experiment, the target named is T2, rat CRF2 a (Rattus norvegicus, UniProt P47866).
T2 construct: host or cells: A7R5 rat aortic smooth muscle cells
T2 sequence (P47866 27-431 isoform P47866-2 limits assumed): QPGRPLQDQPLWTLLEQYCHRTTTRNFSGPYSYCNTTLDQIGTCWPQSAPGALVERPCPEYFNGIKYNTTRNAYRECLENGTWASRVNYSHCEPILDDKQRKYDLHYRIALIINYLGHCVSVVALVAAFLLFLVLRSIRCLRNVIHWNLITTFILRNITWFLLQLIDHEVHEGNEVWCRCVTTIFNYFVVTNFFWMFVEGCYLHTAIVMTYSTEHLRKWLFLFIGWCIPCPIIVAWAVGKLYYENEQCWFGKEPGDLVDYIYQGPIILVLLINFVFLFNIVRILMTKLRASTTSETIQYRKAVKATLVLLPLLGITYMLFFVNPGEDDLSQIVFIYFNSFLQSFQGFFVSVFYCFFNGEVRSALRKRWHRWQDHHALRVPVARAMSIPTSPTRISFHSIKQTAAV
Nature of the experiment: Activity at rat CRF2 a, cAMP assay in A7R5 rat aortic smooth muscle cells. Type of experiment: cell-based. The note with it: 0% HSA, 100% = Sauvagine at 100 nM. The method, then: The A7R5 rat aortic smooth muscle cell line used in this study was purchased from ATCC.
Cells were grown in a 10 cm dish at 37° C./5% CO2 in medium (DMEM/10% FBS) to near confluence. At that stage, cells were harvested, resuspended to 10 million/mL in culture medium and with 5% DMSO. 1 mL vial aliquots were slowly frozen to −80° C. in isopropanol and then transferred in liquid nitrogen for storage.
These vials were used to run the experiment following the procedure reported in the previous paragraph, except for the compound used in the control well to define the 100% activation (Sauvagine at 100 nM) and the cell density (final cell density: 5000 cells/well).

In another experiment the target is T3, CFR1R receptor (Homo sapiens, UniProt P34998).
T3 construct: host or cells: CHO-K1 (clone 2)
T3 sequence (P34998 24-415): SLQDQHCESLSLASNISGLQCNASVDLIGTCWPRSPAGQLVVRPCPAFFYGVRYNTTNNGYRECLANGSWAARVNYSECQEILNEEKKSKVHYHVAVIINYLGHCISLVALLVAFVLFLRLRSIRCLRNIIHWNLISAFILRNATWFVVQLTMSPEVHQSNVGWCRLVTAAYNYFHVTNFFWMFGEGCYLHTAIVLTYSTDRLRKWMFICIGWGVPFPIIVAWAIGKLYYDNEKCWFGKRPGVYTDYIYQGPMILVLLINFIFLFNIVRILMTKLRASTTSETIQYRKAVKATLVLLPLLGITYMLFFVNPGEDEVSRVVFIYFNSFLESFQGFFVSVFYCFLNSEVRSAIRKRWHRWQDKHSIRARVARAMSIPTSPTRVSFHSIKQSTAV
Nature of the experiment: Activity at anti-target CFR1R receptor, cAMP assay in CRF1R-overexpression CHO-K1 cells. It counts as cell-based. Conditions: 100% = Sauvagine at 100 nM; for EC50: cAMP. The method, boiled down: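 Uses frozen stocks of CHO-K1 clone 2 cells overexpressing human CRF1R, plated at 4000 cells/well final, with cAMP measured by the same protocol as the TeloHAEC line. Full-activation control: 100 nM Sauvagine.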
(In general: cAMP levels reflect the balance of adenylyl cyclase and phosphodiesterase activity.)

Experiment [1] concerns the target T4, CRF1R (corticotropin-releasing factor receptor 1), on the CRF1R-overexpression CHO-K1 cell line clone 2 (UniProt P34998 24-415, limits assumed).
T4 sequence (looked up): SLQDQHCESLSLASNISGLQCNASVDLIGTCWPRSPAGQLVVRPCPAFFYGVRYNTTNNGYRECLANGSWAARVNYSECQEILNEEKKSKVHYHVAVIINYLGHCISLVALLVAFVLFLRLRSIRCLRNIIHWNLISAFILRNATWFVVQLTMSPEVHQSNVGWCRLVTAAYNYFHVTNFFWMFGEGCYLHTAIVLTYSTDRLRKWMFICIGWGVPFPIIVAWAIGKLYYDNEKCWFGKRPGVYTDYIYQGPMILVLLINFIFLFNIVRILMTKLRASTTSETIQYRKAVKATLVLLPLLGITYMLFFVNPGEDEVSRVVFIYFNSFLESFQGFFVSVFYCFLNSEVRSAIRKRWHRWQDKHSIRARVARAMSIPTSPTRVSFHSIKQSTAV
Nature of the experiment: cell-based or functional assay.

Experiment [2] concerns the target Rat CRF2 a (corticotropin-releasing factor receptor 2), on the A7R5 rat aortic smooth muscle cell line (rat, UniProt P47866 20-411). Nature of the experiment: cell-based or functional assay.

*1 amine or outer side, *2 acyl side, *3 side chain or, on linkers, in order; H or OH if unused. Where a SMILES comes first, the peptide text is derived from it. Side-chain parts run from the residue outwards. [ ]: non-standard residue; d: D form. The star is where a group is joined. C20 diacid = O=C(O)CCCCCCCCCCCCCCCCCCC(=O)*; γGlu = O=C(O)[C@H](CCC(=O)[*:2])N[*:1]; AEEA = NCCOCCOCC(=O)O; Aib = CC(C)(N)C(=O)O

Rat CRF2 a (corticotropin-releasing factor receptor 2), on the A7R5 rat aortic smooth muscle cell line, sequence (P47866 20-411): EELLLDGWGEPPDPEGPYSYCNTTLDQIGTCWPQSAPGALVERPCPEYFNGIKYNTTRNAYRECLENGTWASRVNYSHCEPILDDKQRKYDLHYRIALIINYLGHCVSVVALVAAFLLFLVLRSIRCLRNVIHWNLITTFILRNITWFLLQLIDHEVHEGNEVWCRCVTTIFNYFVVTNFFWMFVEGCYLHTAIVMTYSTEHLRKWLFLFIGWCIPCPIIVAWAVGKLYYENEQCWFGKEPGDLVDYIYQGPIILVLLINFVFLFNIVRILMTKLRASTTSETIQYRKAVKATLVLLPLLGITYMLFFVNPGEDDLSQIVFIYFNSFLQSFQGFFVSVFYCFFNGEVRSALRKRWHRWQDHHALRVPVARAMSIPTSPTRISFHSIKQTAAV

On to `CC[C@H](C)[C@H](NC(C)=O)C(=O)N[C@H](C(=O)N[C@@H](CC(C)C)C(=O)N[C@@H](CO)C(=O)N[C@@H](CC(C)C)C(=O)N[C@@H](CC(=O)O)C(=O)N[C@@H](C(=O)N1CCC[C@H]1C(=O)N[C@H](C(=O)N[C@@H](CCCCN)C(=O)N[C@@H](CC(C)C)C(=O)N[C@@H](CCCCNC(=O)COCCOCCNC(=O)CC[C@H](NC(=O)CCCCCCCCCCCCCCCCCCC(=O)O)C(=O)O)C(=O)N[C@@H](CCCCN)C(=O)N[C@H](C(=O)N[C@@H](CC(C)C)C(=O)N[C@@H](CC(C)C)C(=O)N[C@@H](CCC(=O)O)C(=O)N[C@@H](CCC(N)=O)C(=O)N[C@@H](CCC(=O)O)C(=O)N[C@@H](CCCCN)C(=O)N[C@@H](CCC(N)=O)C(=O)N[C@@H](CCCCN)C(=O)N[C@@H](C)C(=O)N[C@@H](CCC(N)=O)C(=O)N[C@@H](CCCNC(=N)N)C(=O)N[C@@H](CCC(=O)O)C(=O)N[C@@H](CCC(N)=O)C(=O)N[C@@H](C)C(=O)N[C@@H](CCC(=O)O)C(=O)N[C@H](C(=O)N[C@@H](CC(N)=O)C(=O)NC(C)(C)C(=O)N[C@@H](CCC(N)=O)C(=O)N[C@H](C(=O)N[C@@H](CC(C)C)C(=O)N[C@@H](C)C(=O)N[C@@H](CCC(N)=O)C(=O)N[C@H](C(N)=O)C(C)C)[C@@H](C)CC)[C@@H](C)O)[C@@H](C)CC)[C@@H](C)CC)C(C)C)C(C)C` [compound 232] (Ac-IVLSLD[dV]PIKLK([AEEA-γGlu-C20 diacid])KILLEQEKQKAQREQAETN[Aib]QILAQV-NH2), for which the values for the EC50 at human CRF2a receptor, on rat CRF2 a and at CFR1R receptor were 0.12 nM, 0.4 nM and over 250 nM, respectively. In addition, the “Emax (% I)” value at CFR1R receptor is 13 % I.
In the case of `CC[C@H](C)[C@H](NC(C)=O)C(=O)N[C@H](C(=O)N[C@@H](CC(C)C)C(=O)N[C@@H](CO)C(=O)N[C@@H](CC(C)C)C(=O)N[C@@H](CC(=O)O)C(=O)N[C@@H](C(=O)N1CCC[C@H]1C(=O)N[C@H](C(=O)N[C@@H](CCCCN)C(=O)N[C@@H](CC(C)C)C(=O)N[C@@H](CCCCNC(=O)COCCOCCNC(=O)COCCOCCNC(=O)CC[C@H](NC(=O)CCCCCCCCCCCCCCCCCCC(=O)O)C(=O)O)C(=O)N[C@@H](CCCCN)C(=O)N[C@H](C(=O)N[C@@H](CC(C)C)C(=O)N[C@@H](CC(C)C)C(=O)N[C@@H](CCC(=O)O)C(=O)N[C@@H](CCC(N)=O)C(=O)N[C@@H](CCC(=O)O)C(=O)N[C@@H](CCCCN)C(=O)N[C@@H](CCC(N)=O)C(=O)N[C@@H](CCCCN)C(=O)N[C@@H](CCCCN)C(=O)N[C@@H](CCC(N)=O)C(=O)N[C@@H](CCCNC(=N)N)C(=O)N[C@@H](CCC(=O)O)C(=O)N[C@@H](CCC(N)=O)C(=O)N[C@@H](C)C(=O)N[C@@H](CCC(=O)O)C(=O)N[C@H](C(=O)N[C@@H](CC(N)=O)C(=O)NC(C)(C)C(=O)N[C@@H](CCC(N)=O)C(=O)N[C@H](C(=O)N[C@@H](CC(C)C)C(=O)N[C@@H](C)C(=O)N[C@@H](CCC(N)=O)C(=O)N[C@H](C(N)=O)C(C)C)[C@@H](C)CC)[C@@H](C)O)[C@@H](C)CC)[C@@H](C)CC)C(C)C)C(C)C` [compound 238] (Ac-IVLSLD[dV]PIKLK([AEEA-AEEA-γGlu-C20 diacid])KILLEQEKQKKQREQAETN[Aib]QILAQV-NH2), the EC50 (as a rule, the concentration at which the effect is half-maximal) at human CRF2a receptor was 0.11 nM; on rat CRF2 a, 0.09 nM; on CFR1R receptor, over 250 nM. The “Emax (% I)” value on CFR1R receptor is reported as 12 % I.
The like results for `CC[C@H](C)[C@H](NC(C)=O)C(=O)N[C@H](C(=O)N[C@@H](CC(C)C)C(=O)N[C@@H](CO)C(=O)N[C@@H](CC(C)C)C(=O)N[C@@H](CC(=O)O)C(=O)N[C@@H](C(=O)N1CCC[C@H]1C(=O)N[C@H](C(=O)N[C@@H](CCCCN)C(=O)N[C@@H](CC(C)C)C(=O)N[C@@H](CCCCNC(=O)CC[C@H](NC(=O)CC[C@H](NC(=O)CCCCCCCCCCCCCCCCCCC(=O)O)C(=O)O)C(=O)O)C(=O)N[C@@H](CCCCN)C(=O)N[C@H](C(=O)N[C@@H](CC(C)C)C(=O)N[C@@H](CC(C)C)C(=O)N[C@@H](CCC(=O)O)C(=O)N[C@@H](CCC(N)=O)C(=O)N[C@@H](CCC(=O)O)C(=O)N[C@@H](CCCCN)C(=O)N[C@@H](CCC(N)=O)C(=O)N[C@@H](CCCCN)C(=O)N[C@@H](CCCCN)C(=O)N[C@@H](CCC(N)=O)C(=O)N[C@@H](CCCNC(=N)N)C(=O)N[C@@H](CCC(=O)O)C(=O)N[C@@H](CCC(N)=O)C(=O)N[C@@H](C)C(=O)N[C@@H](CCC(=O)O)C(=O)N[C@H](C(=O)N[C@@H](CC(N)=O)C(=O)NC(C)(C)C(=O)N[C@@H](CCC(N)=O)C(=O)N[C@H](C(=O)N[C@@H](CC(C)C)C(=O)N[C@@H](C)C(=O)N[C@@H](CCC(N)=O)C(=O)N[C@H](C(N)=O)C(C)C)[C@@H](C)CC)[C@@H](C)O)[C@@H](C)CC)[C@@H](C)CC)C(C)C)C(C)C` [compound 243] (Ac-IVLSLD[dV]PIKLK([γGlu-γGlu-C20 diacid])KILLEQEKQKKQREQAETN[Aib]QILAQV-NH2) were, in that order, 0.13 nM, 0.09 nM, over 250 nM and 8 % I.

B1: peptide of SEQ ID NO: 244 (peptide)
peptide: Ac-IVLSLD[dV]PIKLK([γGlu-γGlu-C20 diacid])KILLEQEKQKAQREQAETN[Aib]QILAQV-NH2
SMILES: CC[C@H](C)[C@H](NC(C)=O)C(=O)N[C@H](C(=O)N[C@@H](CC(C)C)C(=O)N[C@@H](CO)C(=O)N[C@@H](CC(C)C)C(=O)N[C@@H](CC(=O)O)C(=O)N[C@@H](C(=O)N1CCC[C@H]1C(=O)N[C@H](C(=O)N[C@@H](CCCCN)C(=O)N[C@@H](CC(C)C)C(=O)N[C@@H](CCCCNC(=O)CC[C@H](NC(=O)CC[C@H](NC(=O)CCCCCCCCCCCCCCCCCCC(=O)O)C(=O)O)C(=O)O)C(=O)N[C@@H](CCCCN)C(=O)N[C@H](C(=O)N[C@@H](CC(C)C)C(=O)N[C@@H](CC(C)C)C(=O)N[C@@H](CCC(=O)O)C(=O)N[C@@H](CCC(N)=O)C(=O)N[C@@H](CCC(=O)O)C(=O)N[C@@H](CCCCN)C(=O)N[C@@H](CCC(N)=O)C(=O)N[C@@H](CCCCN)C(=O)N[C@@H](C)C(=O)N[C@@H](CCC(N)=O)C(=O)N[C@@H](CCCNC(=N)N)C(=O)N[C@@H](CCC(=O)O)C(=O)N[C@@H](CCC(N)=O)C(=O)N[C@@H](C)C(=O)N[C@@H](CCC(=O)O)C(=O)N[C@H](C(=O)N[C@@H](CC(N)=O)C(=O)NC(C)(C)C(=O)N[C@@H](CCC(N)=O)C(=O)N[C@H](C(=O)N[C@@H](CC(C)C)C(=O)N[C@@H](C)C(=O)N[C@@H](CCC(N)=O)C(=O)N[C@H](C(N)=O)C(C)C)[C@@H](C)CC)[C@@H](C)O)[C@@H](C)CC)[C@@H](C)CC)C(C)C)C(C)C
For B1, in experiment [1], the “EC50 [nM] (cAMP, CRF1R-overexpression CHO-K1 cells)” value was over 250 nM and the “Emax (% I) (cAMP, 100% = Sauvagine at 100 nM)” value stood at 8 % I. Moreover, the “EC50 [nM] 0% HSA (cAMP, A7R5 rat aortic smooth muscle cells)” value in experiment [2] worked out at 1.77 nM.

Source of the values: patent US20260001928A1 (CORTERIA PHARMACEUTICALS, priority 2022, published 2026).
